Experimental findings from patent US7749731B2, “Methods for recombinant peptide production” (XOMA Technology Ltd., priority 1999, dated 2010) are described below.

Holding throughout (assay): Broth microdilution antifungal assay
Holding throughout (type): cell-based
Conditions in all cases: Sabouraud dextrose broth, 30° C., 48 hours

The subject of test [1] is C. albicans 26555. On the procedure: (§1) For example, studies were performed to evaluate the antifungal activity of the recombinant peptide from pING4702 purified according to Example 6 in a broth microdilution assay using four strains of C. albicans, C. glabrata and S. cerevisiae. A similar peptide, XMP.391, that was chemically synthesized, was included in the assay as a positive control. To perform the broth microdilution assay, the fungal cultures were grown overnight at 30° C. in YPD medium (1% yeast extract, 2% peptone, and 2% dextrose). A 400 fold dilution of each culture in YPD was then made, and grown at 30° C. for 8 hours. Three mL of each culture were collected by centrifugation and suspended in 0.9% NaCl to an A600 of about 0.3. These cultures were further diluted to 1×10^4 CFU/mL in Sabouraud dextrose broth (6 mL). Recombinant peptide was in 5 mM acetate, 150 mM NaCl, pH 5.0 at a concentration of about 2 mg/mL. Synthetic peptide was at about 1 mg/mL. Samples were serially diluted and added to microtiter plates containing the cultures. Plates were incubated at 30° C. for 48 hours before growth inhibition was measured.

In test [2] the test system is S. cerevisiae 9763. On the procedure: as §1
In test [3] the test system is C. glabrata 2001. On the procedure: as §1
The subject of test [4] is C. albicans SLU1. On the procedure: as §1
Test [5] relates to C. albicans 14053. On the procedure:
as §1

The test system of test [6] is C. albicans 10231. As to the method:
as §1

“XMP.391: Chemically synthesized 12 amino acid BPI-derived peptide (Lys Val Gly Trp Leu Ile Gln Leu Phe His Lys Lys), positive control (KVGWLIQLFHKK; printed: Lys Val Gly Trp Leu Ile Gln Leu Phe His Lys Lys)”: the “Concentration that gives 95% inhibition” value in test [1] was found to be 16 µM; in test [2] it was 2.0 µM; in test [3], 30 µM; in test [4], 13.5 µM; in test [5], 16 µM; in test [6] it was 16 µM.

Consider “Recombinant Peptide: BPI-derived peptide (SEQ ID NO: 3) acid-released from the Bone D-Asp-Pro-Pro-peptide fusion protein encoded by pING4702, purified according to Example 6 (KVGWLIQLFHKK; Human)”, for which the “Concentration that gives 95% inhibition” value in test [1] was 30 µM; in test [2], 7.5 µM; in test [3], 30 µM; in test [4] it was 16 µM; in test [5] it was 16 µM; in test [6], 30 µM.
